Measurements as given in ChEMBL document CHEMBL5375955, “Discovery of New Fusobacterium nucleatum Inhibitors to Attenuate Migratory Capability of Colon Cancer Cells by the Drug Repositioning Strategy” (J Med Chem, 2023).
In brackets after ≈: the same amount, converted by molar mass. Activity calls are given as the source filed them. No cut-off for these calls is given here.

Legend:
Fusobacterium nucleatum [1] = assay: Antibacterial activity against Fusobacterium nucleatum ATCC 23726 assessed as bacterial growth inhibition incubated for 48 hrs by broth dilution susceptibility test; type: functional
MC-38 = assay: Antiproliferative activity against mouse MC-38 cells assessed as inhibition of cell growth incubated for 48 hrs by CCK-8 assay; type: functional, cell-based; conditions: MC-38, 48 h
HCT-116 = assay: Antiproliferative activity against human HCT-116 cells assessed as inhibition of cell growth incubated for 48 hrs by CCK-8 assay; type: functional, cell-based; conditions: HCT-116, 48 h
[2] = Cytotoxicity against HUVEC cells assessed as inhibition of cell growth incubated for 48 hrs by CCK-8 assay; type: toxicity, cell-based; conditions: human
[3] = Cytotoxicity against human L02 cells assessed as inhibition of cell growth incubated for 48 hrs by CCK-8 assay; type: toxicity, cell-based
Fusobacterium nucleatum [4] = assay: Antibacterial activity against Fusobacterium nucleatum ATCC 23726 assessed as bacterial growth inhibition at 8 ug/ml incubated for 72 hrs by turbidimeter analysis; type: functional, organism-based; conditions: dose 8.0 µg/ml
Fusobacterium nucleatum [5] = assay: Antibacterial activity against Fusobacterium nucleatum ATCC 23726 assessed as bacterial growth inhibition incubated for 72 hrs by turbidimeter analysis; type: functional, organism-based
Escherichia coli = assay: Antibacterial activity against Escherichia coli […] assessed as bacterial growth inhibition incubated for 48 hrs by broth dilution susceptibility test; type: functional
Enterococcus faecalis = assay: Antibacterial activity against Enterococcus faecalis ATCC 29212 assessed as bacterial growth inhibition incubated for 48 hrs by broth dilution susceptibility test; type: functional
Staphylococcus aureus = assay: Antibacterial activity against Staphylococcus aureus ATCC 6538 assessed as bacterial growth inhibition incubated for 48 hrs by broth dilution susceptibility test; type: functional
[6] = system: Peptostreptococcus anaerobius; assay: Antibacterial activity against Peptostreptococcus anaerobius ATCC 27337 assessed as bacterial growth inhibition incubated for 48 hrs by broth dilution susceptibility test; type: functional
Akkermansia muciniphila = assay: Antibacterial activity against Akkermansia muciniphila ATCC BAA-835 assessed as bacterial growth inhibition incubated for 48 hrs by broth dilution susceptibility test; type: functional
[7] = system: Salmonella enterica subsp. enterica serovar Paratyphi B; assay: Antibacterial activity against Salmonella paratyphi B ATCC CMCC50094 assessed as bacterial growth inhibition incubated for 48 hrs by broth dilution susceptibility test; type: functional
Shigella flexneri = assay: Antibacterial activity against Shigella flexneri ATCC 12022 assessed as bacterial growth inhibition incubated for 48 hrs by broth dilution susceptibility test; type: functional
[8] = system: Lactobacillus acidophilus; assay: Antibacterial activity against Lactobacillus acidophilus ATCC CGMCC 1.577 assessed as bacterial growth inhibition incubated for 48 hrs by broth dilution susceptibility test; type: functional
Fusobacterium nucleatum [9] = assay: Antibiofilm activity against Fusobacterium nucleatum ATCC 23726 assessed as inhibition of biofilm formation incubated for 48 hrs by crystal violet staining based assay; type: functional, organism-based; conditions: dose 0.5-16 µg/ml
Fusobacterium nucleatum [10] = assay: Inhibition of Fusobacterium nucleatum ATCC 23726 stimulated mouse MC-38 cell migration assessed as reduction in number of migrating cells at 16 to 32 ug/ml incubated for 48 hrs by crystal violet staining based transwell assay; type: functional; conditions: dose 16-32 µg/ml
Fusobacterium nucleatum [11] = assay: Antibacterial activity against Fusobacterium nucleatum ATCC 23726 assessed as downregulation of NTR gene expression incubated for 48 hrs by RT-qPCR analysis; type: functional, organism-based
Fusobacterium nucleatum [12] = assay: Antibiofilm activity against Fusobacterium nucleatum ATCC 23726 assessed as downregulation of tnaA gene expression measured after 48 hrs by RT-qPCR analysis; type: functional, organism-based
L02 = assay: Downregulation of HPPD gene expression in human L02 cells at 10 to 50 uM incubated for 48 hrs by RT-qPCR analysis; type: functional, cell-based; conditions: dose 10-50 µM
[13] = Acute toxicity in ICR mouse assessed as death rate at 2160 mg/kg, po measured after 7 days; type: organism-based; conditions: in vivo, time 7 day, read-out: Activity
[14] = Acute toxicity in ICR mouse assessed as death rate at 2592 mg/kg, po measured after 7 days; type: organism-based; conditions: in vivo, time 7 day, read-out: Activity
[15] = Acute toxicity in po dosed ICR mouse assessed as animal death measured after 7 days; type: organism-based; conditions: in vivo, time 7 day
[16] = Acute toxicity in po dosed ICR mouse assessed as lung damage by measuring thickening of alveolar walls at 1500 mg/kg, po measured after 7 days by H and E staining based analysis; type: organism-based; conditions: in vivo, 168 h, time 7 day
[17] = Acute toxicity in po dosed ICR mouse assessed as kidney damage by measuring atrophy of glomerulus at 1500 mg/kg, po measured after 7 days by H and E staining based analysis; type: organism-based; conditions: in vivo, 168 h, time 7 day

## Cc1ncc([N+](=O)[O-])n1C [DIMETRIDAZOLE]
Fusobacterium nucleatum [1]
  MIC50: 1 µg/mL (≈ 7.09 µM)

## Cl.Cl.Cl.O[C@@H](COc1cccc2ncccc12)CN1CCN([C@@H]2c3ccccc3[C@@H]3[C@H](c4ccccc42)C3(F)F)CC1 [ZOSUQUIDAR TRIHYDROCHLORIDE]
Fusobacterium nucleatum [1]
  MIC50: 16 µg/mL

## Cc1ccc(OC(=O)c2ccc(C(F)(F)F)cc2[N+](=O)[O-])c(C(N)=O)c1
Fusobacterium nucleatum [1]
  MIC50: 64 µg/mL (≈ 174 µM)

## NC(=O)c1ccc(NC(=O)c2ccc(C(F)(F)F)cc2[N+](=O)[O-])cc1
Fusobacterium nucleatum [1]
  MIC50: > 64 µg/mL

## O=C(OCc1ccc([N+](=O)[O-])o1)c1ccc(C(F)(F)F)cc1[N+](=O)[O-]
Fusobacterium nucleatum [1]
  MIC50: 4 µg/mL (≈ 11.1 µM)
MC-38
  IC50: 49 µM
HCT-116
  IC50: 84 µM
[2]
  IC50 at 48 h: 40 µM
[3]
  IC50 at 48 h: 81 µM
Fusobacterium nucleatum [4]
  Activity: Active
Fusobacterium nucleatum [5]
  Activity: Dose-Dependent Effect
Escherichia coli
  MIC50: > 64 µg/mL
Enterococcus faecalis
  MIC50: > 64 µg/mL
Staphylococcus aureus
  MIC50: > 64 µg/mL
[6]
  MIC50: > 64 µg/mL
Akkermansia muciniphila
  MIC50: > 64 µg/mL
[7]
  MIC50: 64 µg/mL (≈ 178 µM)
Shigella flexneri
  MIC50: > 64 µg/mL
[8]
  MIC50: 64 µg/mL (≈ 178 µM)

## O=C(Nc1ccon1)c1ccc([N+](=O)[O-])c(Br)c1
Fusobacterium nucleatum [1]
  MIC50: > 64 µg/mL

## O=C1OCCN1/N=C/c1ccc([N+](=O)[O-])o1 [FURAZOLIDONE]
Fusobacterium nucleatum [1]
  MIC50: 16 µg/mL (≈ 71.1 µM)

## CC1CS(=O)(=O)CCN1/N=C/c1ccc([N+](=O)[O-])o1 (stereo not drawn) [NIFURTIMOX]
Fusobacterium nucleatum [1]
  MIC50: 16 µg/mL (≈ 55.7 µM)

## O=C(Nc1ccon1)c1ccc([N+](=O)[O-])cc1I
Fusobacterium nucleatum [1]
  MIC50: > 64 µg/mL

## O=C(Nc1cc(Cl)cc([N+](=O)[O-])c1)c1ccc(C(F)(F)F)cc1[N+](=O)[O-]
Fusobacterium nucleatum [1]
  MIC50: > 64 µg/mL

## CS(=O)(=O)c1ccc(C(=O)C2C(=O)CCCC2=O)c([N+](=O)[O-])c1 [MESOTRIONE]
Fusobacterium nucleatum [1]
  MIC50: 32 µg/mL (≈ 94.3 µM)

## O=C1CCCC(=O)C1C(=O)c1ccc(C(F)(F)F)cc1[N+](=O)[O-] [NITISINONE]
Fusobacterium nucleatum [1]
  MIC50: 8 µg/mL (≈ 24.3 µM)
MC-38
  IC50: 96 µM
HCT-116
  IC50: 108 µM
[2]
  IC50 at 48 h: 338 µM
[3]
  IC50 at 48 h: 104 µM
Fusobacterium nucleatum [9]
  inhibition: Dose-Dependent Effect
Escherichia coli
  MIC50: > 64 µg/mL
Enterococcus faecalis
  MIC50: > 64 µg/mL
Staphylococcus aureus
  MIC50: > 64 µg/mL
[6]
  MIC50: > 64 µg/mL
Akkermansia muciniphila
  MIC50: > 64 µg/mL
[7]
  MIC50: > 64 µg/mL
Shigella flexneri
  MIC50: > 64 µg/mL
[8]
  MIC50: 64 µg/mL (≈ 194 µM)
Fusobacterium nucleatum [10]
  inhibition: Active
Fusobacterium nucleatum [11]
  Activity: Dose-Dependent Effect
Fusobacterium nucleatum [12]
  Activity: Dose-Dependent Effect
L02
  Activity: Active
[13]
  mortality at 168 h: 100%
[14]
  mortality at 168 h: 90%
[15]
  LD50 at 168 h: 1610 mg/kg
[16]
  Activity: Toxic
[17]
  Activity: Toxic

## Cc1cc(=O)oc2ccc(OC(=O)c3ccc([N+](=O)[O-])c(F)c3)cc12
Fusobacterium nucleatum [1]
  MIC50: > 64 µg/mL

## CS(=O)(=O)c1ccc(C(=O)C2C(=O)CCCC2=O)c(Cl)c1 [SULCOTRIONE]
Fusobacterium nucleatum [1]
  MIC50: > 64 µg/mL

## O=[N+]([O-])c1ccc(COc2ccc(C(F)(F)F)cc2[N+](=O)[O-])o1
Fusobacterium nucleatum [1]
  MIC50: 4 µg/mL (≈ 12 µM)

## CSc1ccc(OCc2ncc([N+](=O)[O-])n2C)cc1 [FEXINIDAZOLE]
Fusobacterium nucleatum [1]
  MIC50: 8 µg/mL (≈ 28.6 µM)

## O=C(Nc1ccc([N+](=O)[O-])c(Cl)c1)c1ccc([N+](=O)[O-])cc1F
Fusobacterium nucleatum [1]
  MIC50: > 64 µg/mL
